Literature values, collected in patent publication US20250235554A1, “METHODS FOR IMPROVING ADENO-[…] (AAV) […]” (Novartis AG, priority 2021, published 2025).

Tested on: glymphatic flow
Settings: mice and rats

## Cc1cccc([C@H](C)c2cnc[nH]2)c1C [Dexmedetomidine]
  effect on brain and spinal cord exposure of intrathecally administered drugs: increases brain and spinal cord drug exposure of intrathecally administered drugs
